Results: BindingDB's records for doi:10.1021/jm050519b (Oxagen, 2005)
pIC50: −log10 of the molar value.

Test: Concentration required to inhibit PGD-2 induced change in the shape of human eosinophils expressing CRTH2

Row | Compound | pIC50
1 | Cc1c(CC(=O)O)c2cc(F)ccc2n1S(=O)(=O)c1ccc(Cl)cc1 [[1-(4-Chloro-benzenesulfonyl)-5-fluoro-2-methyl-1H-indol-3-yl]-acetic acid] | 6.04
2 | Cc1c(CC(=O)O)c2cc(F)ccc2n1S(=O)(=O)c1ccc(S(C)(=O)=O)cc1 [[5-Fluoro-1-(4-methanesulfonyl-benzenesulfonyl)-2-methyl-1H-indol-3-yl]-acetic acid] | 7.13
